Experimental data: ChEMBL document CHEMBL1201862, “PubChem BioAssay data set” (2004)
Counter-ions that a name gives are not always drawn.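 These data come from cells grown in 96-well plates and exposed to compound for 48 hours at five concentrations. GI50 marks 50% less growth.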 Active and inactive are the calls of the source. Cut-off read from the data, not from the text of the source: active = GI50 up to about 1.1 µM and inactive = higher.

Assays:
Assay in all cases: DTP human tumour cell line panel, 48 h
A498 = system: A498
A549 = system: A549
ACHN = system: ACHN
COLO 205 = system: COLO 205
HCT-116 = system: HCT-116
HOP-62 = system: HOP-62
IGROV-1 = system: IGROV-1
M14 = system: M14
MCF7 = system: MCF7
MOLT-4 = system: MOLT-4
NCI-H226 = system: NCI-H226
OVCAR-3 = system: OVCAR-3
PC-3 = system: PC-3
SF-268 = system: SF-268
SF-295 = system: SF-295
SF-539 = system: SF-539
SK-MEL-5 = system: SK-MEL-5
SK-OV-3 = system: SK-OV-3
SN12C = system: SN12C

Measured: GI50

O=[N+]([O-])C(C(Cl)=C(Cl)Cl)=C(N1CCCCC1)N1CCCCC1
inactive: A498 > 100 µM | A549 > 100 µM | ACHN > 100 µM | COLO 205 > 100 µM | HCT-116 > 100 µM | HOP-62 > 100 µM | IGROV-1 69.5 µM | M14 > 100 µM | MCF7 90.4 µM | MOLT-4 33.7 µM | NCI-H226 > 100 µM | OVCAR-3 62.2 µM | PC-3 > 100 µM | SF-268 > 100 µM | SF-295 > 100 µM | SF-539 > 100 µM | SK-MEL-5 > 100 µM | SK-OV-3 > 100 µM | SN12C > 100 µM

CCC[C@H](C)C[C@H](C)C[C@H](C)/C=C(\C)[C@@H](O)[C@@H](C)C(=O)CC
inactive: A498 25.5 µM | A549 19.9 µM | ACHN 21.9 µM | HCT-116 17.5 µM | HOP-62 20.4 µM | IGROV-1 19.3 µM | M14 19.8 µM | MCF7 21.3 µM | MOLT-4 21.4 µM | NCI-H226 21 µM | OVCAR-3 19.7 µM | PC-3 20 µM | SF-268 20.9 µM | SF-295 22.9 µM | SF-539 21 µM | SK-MEL-5 18.9 µM | SK-OV-3 36.2 µM | SN12C 18.8 µM

O=C(Nc1nnc(-c2ccccc2)o1)C(SC(=S)N1CCCC1)c1ccccc1 (centres undefined)
inactive: A498 27.1 µM | A549 26.4 µM | ACHN 26.2 µM | COLO 205 37.2 µM | HCT-116 25.1 µM | HOP-62 24.8 µM | IGROV-1 22.9 µM | M14 23.6 µM | MCF7 31.3 µM | MOLT-4 5 µM | NCI-H226 32.1 µM | OVCAR-3 23.5 µM | PC-3 27.8 µM | SF-295 22.9 µM | SF-539 34.2 µM | SK-MEL-5 17.8 µM | SK-OV-3 36.8 µM | SN12C 16.7 µM

NCCc1ccc(S(=O)(=O)O)cc1[N+](=O)[O-]
inactive: A498 > 100 µM | A549 > 100 µM | ACHN > 100 µM | COLO 205 > 100 µM | HCT-116 > 100 µM | HOP-62 > 100 µM | IGROV-1 > 100 µM | M14 > 100 µM | MCF7 > 100 µM | NCI-H226 > 100 µM | OVCAR-3 > 100 µM | PC-3 > 100 µM | SF-268 > 100 µM | SF-295 > 100 µM | SF-539 > 100 µM | SK-MEL-5 > 100 µM | SK-OV-3 > 100 µM | SN12C > 100 µM

CN[C@@H]1[C@H](O)[C@H](NC)[C@H]2O[C@@]3(O)C(=O)C[C@@H](C)O[C@H]3O[C@@H]2[C@H]1O [SPECTINOMYCIN SULFATE]
inactive: A498 > 100 µM | ACHN > 100 µM | COLO 205 > 100 µM | HCT-116 > 100 µM | HOP-62 > 100 µM | IGROV-1 > 100 µM | M14 > 100 µM | MCF7 > 100 µM | MOLT-4 > 100 µM | NCI-H226 > 100 µM | OVCAR-3 > 100 µM | PC-3 > 100 µM | SF-268 > 100 µM | SF-295 > 100 µM | SF-539 > 100 µM | SK-MEL-5 > 100 µM | SK-OV-3 > 100 µM | SN12C > 100 µM

Cc1cc(S(=O)(=O)N=C2NCC(C)(C)CN2)c(S)cc1Cl
inactive: A498 > 100 µM | A549 19 µM | ACHN 24.1 µM | COLO 205 47.3 µM | HCT-116 27.5 µM | HOP-62 52.6 µM | IGROV-1 38.9 µM | M14 31.9 µM | MCF7 42.5 µM | NCI-H226 32.1 µM | OVCAR-3 35.7 µM | PC-3 30.3 µM | SF-268 73.3 µM | SF-539 40.6 µM | SK-MEL-5 17.2 µM | SK-OV-3 > 100 µM | SN12C 47.1 µM

C[C@]12CC[C@H]3[C@@H](CC=C4C[C@@H](O)CC[C@@]43C)[C@@H]1C/C(=C/c1ccccc1)[C@@H]2O
inactive: A498 17.2 µM | A549 > 35.6 µM | ACHN 16.4 µM | COLO 205 > 53.6 µM | HCT-116 8.53 µM | HOP-62 19.7 µM | IGROV-1 11.8 µM | M14 > 45.1 µM | MCF7 > 33 µM | MOLT-4 > 32.7 µM | NCI-H226 18.5 µM | OVCAR-3 16 µM | PC-3 18.9 µM | SF-268 29.3 µM | SF-295 > 36.7 µM | SF-539 30.7 µM | SK-MEL-5 12.1 µM | SK-OV-3 37.6 µM

NCCOc1cccc(C2(N3CCCCC3)CCCCC2)c1
inactive: A498 30 µM | A549 37.2 µM | ACHN > 100 µM | COLO 205 12.3 µM | HCT-116 16.2 µM | HOP-62 92.5 µM | M14 16.4 µM | MCF7 38.8 µM | MOLT-4 19.4 µM | NCI-H226 > 100 µM | OVCAR-3 34.2 µM | PC-3 31.5 µM | SF-268 25.6 µM | SF-295 28.8 µM | SF-539 17.5 µM | SK-MEL-5 16.5 µM | SK-OV-3 > 100 µM | SN12C > 100 µM
